Results published in patent US4835160A, “Derivatives of pyridoindole, having anti-tumor properties” (Sanofi, priority 1986, dated 1989).
Read-outs that look alike come from different tables or passages of the source.

Tests used:
colic adenocarcinoma 38 [1] = test: Test for colic adenocarcinoma 38, SC/D1 IV; assay type: in vivo, BDF1 hybrid mice; conditions: 50 mg/kg IV
Description: (§1) The antitumour activity was tested in vivo on various tumours inoculated in various ways according to the following general protocol:
(§2) All the male or female mice are inoculated on day D0 with a known quantity of viable tumour cells for ascitic tumours or with a known tumour fragment for solid tumours.
(§3) They are then distributed into various groups. Each group, corresponding to the animals treated by the product under test, is made up of 10 mice. The product under test is dissolved in distilled water and it is administered n times (Dx-Dy), n, y, and x varying according to the protocol chosen, at the rate of 0.1 ml of solution per 10 g by weight of mice treated and at specific doses for each protocol.
(§4) The "negative control" group, corresponding to the animals which are not treated by the product, contains 2√N animals, N being equal to or greater than the total number of mice treated by the product in the same experiment.
(§5) the antitumour activity is evaluated, in the case of solid tumours, by considering the reduction in the average tumour volume of the treated animals in comparison with the animals of the "negative control" group, according to the formula: [formula]
(§6) A value for T/C of less than 42% indicates an activity for the product at the studied dose.
(h) Test for colic adenocarcinoma 38, SC/D1 IV. (GERAN et al., Cancer Chemother., 1972, 2, 07-57).
(§7) The tests are carried out with BDF1 hybrid mice inoculated by subcutaneous route with a standardized tumour fragment of 3 mm^3. The compound under test is administered by intravenous route only on day D1.
The number of surviving animals is evaluated on day D38.

[2] = test system: leukemia tumour line L 1210; test: In vitro cytotoxic activity on leukemia tumour line L 1210; assay type: cell-based; conditions: L 1210, 48 hours contact, 37° C., read-out: I D 50 (concentration which inhibits the proliferation of the cells by 50%)
Description: (1) In vitro: ([…] et al., Chem. Biol. Interaction, 1979, 25, 45-58). The cytotoxic activity of the compounds of the invention has been evaluated by in vitro tests. These tests consist of adding increasing concentrations of the compound under test to a cellular culture of the leukemia tumour line L 1210 in an exponential phase of growth. The cellules are incubated at 37° C. in a CO2 incubator and counted every 24 hours. The calculation of the I D 50 (concentration of the product, expressed in 1^-1 micromole, which inhibits the proliferation of the cells by 50%) is made after 48 hours contact.

colic adenocarcinoma 38 [3] = test: Test for colic adenocarcinoma 38, SC/D2,9 IV; assay type: in vivo, BDF1 hybrid mice; design: Average tumour volume at D32: unit not given beside the values; conditions: D2 and D9; for Number of survivors: day D32; for T/C % at D32: tumour volume
Description: as §1, §2, §3, §4, §5, §6, §7
(i) Test for colic adenocarcinoma 38, SC/D2,9 IV (GERAN et al., Cancer Chemother., 1972, 2, 07-57).
This test is carried out according to the protocol described for test (h), the compound under test being administered by intravenous route on day D2 then on day D9.
The number of surviving animals is evaluated on day D32.

leukemia P 388 [4] = test: Test for leukemia P 388 IP/D1 IV; assay type: in vivo, CDF1 hybrid mice; conditions: for Number of survivors: day D30; for T/C %: survival time
Description: as §1, §2, §3, §4
(§8) Finally, the tests can also be carried out at the same time as the study of a group called "positive control", of ten animals, which is treated by a molecule, known for its antitumour activity and which can vary according to the protocol chosen, in the same conditions as the groups treated by the product under test.
(§9) The antitumour activity is evaluated, in the case of ascitic tumours, by considering the increase in the survival time of the animals treated in comparison to that of the animals in the "negative control" group, according to the formula: [formula]
(§10) Also, a product is considered as toxic at the dose studied when this T/C value is equal to or less than 85%. In addition, a product is also considered as toxic at the dose studied when the weight variation, expressed in grams and calculated by the formula: […]
(§11) The tests are carried out with CDF1 hybrid mice inoculated by intraperitoneal route with 10^6 leukemia cells from the P 388 line. The compound under test is administered for 5 successive days (D1-D5) by intraperitoneal route. The positive control for the test is 5-fluorouracile which is administered in the same conditions. The number of surviving animals is evaluated on day D30.
(f) Test for leukemia P 388 IP/D1 IV (GERAN et al., Cancer Chemother., 1972, 2, 07-57).
The test is carried out according to the same protocol as that described for test (a), the compound under test being administered by intravenous route only on day D1.

leukemia P 388 [5] = test: Test of leukemia P 388; IP/IP, D1-5; assay type: in vivo, CDF1 hybrid mice; conditions: D1-D5; for Number of survivors: day D30; for T/C %: survival time
Description: (2) In vivo: (GERAN et al., Cancer Chemother., 1972, 2, 07-57):
as §1, §2, §3, §4, §8, §9
The criterion for activity varies according to the protocol.
as §10
"Average weight of the group measured on day 5--Average weight of the same group measured on day 1"
is equal to or less than 4 g.
(a) Test of lelukemia P 388; IP/IP, D1-5 (GERAN et al., Cancer Chemother., 1972, 2, 07-57).
as §11

in vivo [6] = test: in vivo; design: species or system female CDF1 hybrid mice; conditions: mouse, iv
Description: In addition the administration, to healthy female CDF1 hybrid mice, in a single injection by intravenous route with a perfusor, lasting 4 minutes, of the compounds under test in solution in physiological serum at a rate of 0.1 ml of solution per 10 g weight of the animals has enabled it to be established that the compounds are also well tolerated at a high dosage in these conditions.

melanoma B 16 = test: Test for melanoma B 16; assay type: in vivo, BDF1 hybrid mice; conditions: D1-D9; for Number of survivors: day D60; for T/C %: survival time
Description: as §1, §2, §3, §4, §8, §9, §10
(d) Test for melanoma B 16 (GERAN et al., Cancer Chemother., 1972, 2, 07-75).
The tests are carried out with BDF1 hybrid mice inoculated by intraperitoneal route with 0.5 ml of a homogenate of melanoma B 16 made up from 1 g of tumour in 10 ml of physiological serum. The compound under test is administered for 9 days (D1-D9) by intraperitoneal route. The positive control for the test is Cis-Platine administered in the same conditions. The number of surviving animals is evaluated on day D60.

leukemia L 1210 = test: Test for leukemia L 1210 IP/D1 IV; assay type: in vivo, CDF1 hybrid mice; conditions: for Number of survivors: day D60; for T/C %: survival time
Description: as §1, §2, §3, §4, §8, §9, §10
as §11, with “10^5” for “10^6”, “L 1210” for “P 388”, “5” for “5 successive”, “5-fluorouracile” for “5-fluorouracile which is”, “D60.” for “D30.”
(g) Test for leukemia L 1210 IP/D1 IV. (GERAN et al., Cancer Chemother., 1972, 2, 07-57).
The test is carried out according to the same protocol as that described for test (c), the compound under test being administered by intravenous route only on day D1.

in vivo [7] = test: in vivo; design: species or system CDF1 hybrid mice; conditions: mouse, ip, 50 mg/kg
Excerpt: The compounds of the invention benefit from a good tolerance and a weak toxicity.
Thus the administration, to healthy CDF1 hybrid mice, in a single injection by intraperitoneal route, of the compounds under test, has enabled it to be established that the product is perfectly tolerated at a high dosage since the survival rate of the animals of the experiment was 100 out of 100 thirteen days after administration.

SMILES: Cc1cnc(NCCCN(C)C)c2c3cc(O)ccc3n(C)c12 [Derivative No. 15, 4,5-dimethyl 1(3-dimethylaminopropylamino)-8-hydroxy-5H-pyrido[4,3-b]indole]
- Average tumour volume at D38 (colic adenocarcinoma 38 [1]): 2.73
- Number of survivors (colic adenocarcinoma 38 [1]; day D38): 10/10
- T/C % at D38 (colic adenocarcinoma 38 [1]; tumour volume): 30%
- IC50 [2]: 10 nM
- Average tumour volume at D32 (colic adenocarcinoma 38 [3]; 25 mg/kg IV): 0.0
- Number of survivors (colic adenocarcinoma 38 [3]; 25 mg/kg IV): 10/10
- T/C % at D32 (colic adenocarcinoma 38 [3]; 25 mg/kg IV): 0%
- Average tumour volume at D32 (colic adenocarcinoma 38 [3]; 50 mg/kg IV): 0.0
- Number of survivors (colic adenocarcinoma 38 [3]; 50 mg/kg IV): 10/10
- T/C % at D32 (colic adenocarcinoma 38 [3]; 50 mg/kg IV): 0%
- Median day of survival (leukemia P 388 [4]; 50 mg/kg IV): 17.75 days
- Variation by weight (g) (leukemia P 388 [4]; 50 mg/kg IV): +0.5 g
- Number of survivors (leukemia P 388 [4]; 50 mg/kg IV): 1/10
- T/C % (leukemia P 388 [4]; 50 mg/kg IV): 163%
- Median day of survival (leukemia P 388 [4]; 100 mg/kg IV): 25.75 days
- Variation by weight (leukemia P 388 [4]; 100 mg/kg IV): -0.25 g
- Number of survivors (leukemia P 388 [4]; 100 mg/kg IV): 4/10
- T/C % (leukemia P 388 [4]; 100 mg/kg IV): 236%
- Median day of survival (leukemia P 388 [5]; 1.25 mg/kg IP): 18.0 days
- Variation by weight (leukemia P 388 [5]; 1.25 mg/kg IP): -1.9 g
- Number of survivors (leukemia P 388 [5]; 1.25 mg/kg IP): 0/10
- T/C % (leukemia P 388 [5]; 1.25 mg/kg IP): 164%
- Median day of survival (leukemia P 388 [5]; 2.5 mg/kg IP): 20.25 days
- Variation by weight (leukemia P 388 [5]; 2.5 mg/kg IP): -1.9 g
- Number of survivors (leukemia P 388 [5]; 2.5 mg/kg IP): 0/10
- T/C % (leukemia P 388 [5]; 2.5 mg/kg IP): 184%
- Median day of survival (leukemia P 388 [5]; 5 mg/kg IP): 26 days
- Variation by weight (leukemia P 388 [5]; 5 mg/kg IP): -2.5 g
- Number of survivors (leukemia P 388 [5]; 5 mg/kg IP): 1/10
- T/C % (leukemia P 388 [5]; 5 mg/kg IP): 236%
- Median day of survival (leukemia P 388 [5]; 10 mg/kg IP): 9.3 days
- Variation by weight (leukemia P 388 [5]; 10 mg/kg IP): -4.1 g
- Number of survivors (leukemia P 388 [5]; 10 mg/kg IP): 0/10
- T/C % (leukemia P 388 [5]; 10 mg/kg IP): 85%

SMILES: CCN(CC)CCCNc1ncc(C)c2c1c1cc(O)ccc1n2C [Derivative No. 11, 1-(3-diethylaminopropylamino)-4,5-dimethyl-8-hydroxy-5H-pyrido[4,3-b]indole]
- survival at 192 h (in vivo [6]; 40 mg/kg): 100%
- survival at 192 h (in vivo [6]; 50 mg/kg): 100%
- IC50 ([2]; Mus musculus, L1210, 48 h): 30 nM
- Median day of survival (melanoma B 16; 1.25 mg/kg IP): 32.25 days
- Variation by weight (melanoma B 16; 1.25 mg/kg IP): -2.5 g
- Number of survivors (melanoma B 16; 1.25 mg/kg IP): 0/10
- T/C % (melanoma B 16; 1.25 mg/kg IP): 133%
- Median day of survival (melanoma B 16; 2.5 mg/kg IP): 35.25 days
- Variation by weight (g) (melanoma B 16; 2.5 mg/kg IP): +0.6 g
- Number of survivors (melanoma B 16; 2.5 mg/kg IP): 0/10
- T/C % (melanoma B 16; 2.5 mg/kg IP): 145%
- Median day of survival (melanoma B 16; 5 mg/kg IP): 41.25 days
- Variation by weight (g) (melanoma B 16; 5 mg/kg IP): +0.2 g
- Number of survivors (melanoma B 16; 5 mg/kg IP): 3/10
- T/C % (melanoma B 16; 5 mg/kg IP): 170%
- Median day of survival (melanoma B 16; 10 mg/kg IP): 19.3 days
- Variation by weight (melanoma B 16; 10 mg/kg IP): -1.0 g
- Number of survivors (melanoma B 16; 10 mg/kg IP): 0/10
- T/C % (melanoma B 16; 10 mg/kg IP): 79%
- Median day of survival (leukemia L 1210; 20 mg/kg IV): 11.8 days
- Variation by weight (leukemia L 1210; 20 mg/kg IV): -0.4 g
- Number of survivors (leukemia L 1210; 20 mg/kg IV): 0/10
- T/C % (leukemia L 1210; 20 mg/kg IV): 132%
- Median day of survival (leukemia L 1210; 40 mg/kg IV): 13.3 days
- Variation by weight (leukemia L 1210; 40 mg/kg IV): -0.2 g
- Number of survivors (leukemia L 1210; 40 mg/kg IV): 0/10
- T/C % (leukemia L 1210; 40 mg/kg IV): 149%
- Median day of survival (leukemia P 388 [5]; 2.5 mg/kg IP): 17.25 days
- Variation by weight (g) (leukemia P 388 [5]; 2.5 mg/kg IP): +1.2 g
- Number of survivors (leukemia P 388 [5]; 2.5 mg/kg IP): 0/10
- T/C % (leukemia P 388 [5]; 2.5 mg/kg IP): 149%
- Median day of survival (leukemia P 388 [5]; 5 mg/kg IP): 19.25 days
- Variation by weight (g) (leukemia P 388 [5]; 5 mg/kg IP): +0.7 g
- Number of survivors (leukemia P 388 [5]; 5 mg/kg IP): 0/10
- T/C % (leukemia P 388 [5]; 5 mg/kg IP): 166%
- Median day of survival (leukemia P 388 [5]; 10 mg/kg IP): 23.75 days
- Variation by weight (g) (leukemia P 388 [5]; 10 mg/kg IP): +0.2 g
- Number of survivors (leukemia P 388 [5]; 10 mg/kg IP): 2/10
- T/C % (leukemia P 388 [5]; 10 mg/kg IP): 205%
- Median day of survival (leukemia P 388 [5]; 20 mg/kg IP): 7.4 days
- Variation by weight (leukemia P 388 [5]; 20 mg/kg IP): -2.8 g
- Number of survivors (leukemia P 388 [5]; 20 mg/kg IP): 0/10
- T/C % (leukemia P 388 [5]; 20 mg/kg IP): 64%
- survival at 312 h (in vivo [7]): 100%
